Laboratory results from ChEMBL document CHEMBL4619708, “Synthesis and biological evaluation of isoliquiritigenin derivatives as a neuroprotective agent against glutamate mediated neurotoxicity in HT22 cells” (2020).
Active and inactive are the calls of the source. No cut-off for these calls is given here.

How the values were obtained:
[1] = system: HT-22; test: Neuroprotection against glutamate-induced oxidative stress in mouse HT22 cells assessed as increase in cell viability pretreated with glutamate for 24 hrs followed by compound addition by calcein AM and PI staining based assay; assay type: functional
[2] = system: HT-22; test: Neuroprotection against glutamate-induced oxidative stress in mouse HT22 cells assessed as increase in cell viability by MTT assay; assay type: functional, cell-based
[3] = system: HT-22; test: Neuroprotection against glutamate-induced oxidative stress in mouse HT22 cells assessed as increase in cell viability at 100 uM pretreated with glutamate for 24 hrs followed by compound addition by calcein AM and PI staining based assay; assay type: functional
[4] = system: HT-22; test: Neuroprotection against glutamate-induced oxidative stress in mouse HT22 cells assessed as reduction in cellular ROS level by DCFDA staining based FACS analysis; assay type: functional, cell-based
[5] = system: HT-22; test: Neuroprotection against glutamate-induced oxidative stress in mouse HT22 cells assessed as reduction in Ca2+ influx pretreated with glutamate for 8 hrs followed by compound addition by Fluo3-AM staining based fluorescent microscopic method; assay type: functional, cell-based
[6] = system: HT-22; test: Neuroprotection against glutamate-induced oxidative stress in mouse HT22 cells assessed as reduction in Ca2+ influx pretreated with glutamate for 8 hrs followed by compound addition by Fluo3-AM staining based fluorescent microscopic method relative to control; assay type: functional; design: scale not given: the % may be the effect or the level left
[7] = system: HT-22; test: Neuroprotection against glutamate-induced oxidative stress in mouse HT22 cells assessed as reduction in phosphorylated JNK protein level at 100 uM by Western blot analysis; assay type: functional, cell-based
[8] = system: HT-22; test: Neuroprotection against glutamate-induced oxidative stress in mouse HT22 cells assessed as reduction in phosphorylated ERK protein level at 100 uM by Western blot analysis; assay type: functional, cell-based
[9] = system: HT-22; test: Neuroprotection against glutamate-induced oxidative stress in mouse HT22 cells assessed as reduction in phosphorylated p38 protein level at 100 uM by Western blot analysis; assay type: functional, cell-based
[10] = system: HT-22; test: Neuroprotection against glutamate-induced oxidative stress in mouse HT22 cells assessed as reduction in bax protein level at 100 uM by Western blot analysis; assay type: functional, cell-based
[11] = system: HT-22; test: Neuroprotection against glutamate-induced oxidative stress in mouse HT22 cells assessed as increase in bcl2 protein level at 100 uM by Western blot analysis; assay type: functional, cell-based
[12] = system: HT-22; test: Neuroprotection against glutamate-induced oxidative stress in mouse HT22 cells assessed as decrease in translocation of AIF to nucleus at 100 uM by Western blot analysis; assay type: functional, cell-based
[13] = system: HT-22; test: Neuroprotection against glutamate-induced oxidative stress in mouse HT22 cells assessed as apoptotic or dead cells pretreated with glutamate for 8 hrs followed by compound addition by annexin V and PI staining based assay (reference value: 2.58%); assay type: functional
[14] = system: HT-22; test: Neuroprotective activity in mouse HT22 cells assessed as apoptotic or dead cells by annexin V and PI staining based assay (reference value: 2.58%); assay type: functional
[15] = system: HT-22; test: Neuroprotection against glutamate-induced oxidative stress in mouse HT22 cells assessed as increase in cell viability at 3 to 6 uM pretreated with glutamate for 24 hrs followed by compound addition by calcein AM and PI staining based assay; assay type: functional
[16] = system: HT-22; test: Neuroprotection against glutamate-induced oxidative stress in mouse HT22 cells assessed as increase in cell viability at 50 to 100 uM pretreated with glutamate for 24 hrs followed by compound addition by calcein AM and PI staining based assay; assay type: functional

## CC(=O)N[C@@H](CS)C(=O)O
[1]
  Activity: inactive

## O=C(/C=C/c1ccc(Cl)cc1)c1ccc(O)cc1O
[1]
  Activity: inactive

## CCn1c2ccccc2c2cc(/C=C/C(=O)c3ccc(O)cc3O)ccc21
[1]
  Activity: inactive

## COc1cc(/C=C/C(=O)c2ccc(O)cc2O)ccc1O
[1]
  Activity: inactive

## COc1ccc(/C=C/C(=O)c2ccc(O)cc2O)cc1
[1]
  Activity: inactive

## O=C(/C=C/c1ccc(O)c(O)c1)c1ccc(O)cc1O
[1]
  Activity: inactive

## COc1cc(/C=C/C(=O)c2ccc(O)cc2O)cc(OC)c1OC
[1]
  Activity: inactive

## CN(C)c1ccc(/C=C/C(=O)c2ccc(O)cc2O)cc1
[1]
  Activity: Active
[2]
  Activity: Active
[3]
  Activity: Active
[4]
  Activity: Active
[5]
  Activity: Active
[6]
  Activity: 50%
[7]
  Activity: Active
[8]
  Activity: Active
[9]
  Activity: Active
[10]
  Activity: Active
[11]
  Activity: Active
[12]
  Activity: Active
[13]
  Activity: 6.4%
[14]
  Activity: 6.01%

## COc1cc(/C=C/C(=O)c2ccc(O)cc2O)cc(OC)c1Br
[1]
  Activity: inactive

## O=C(/C=C/c1ccc(C(F)(F)F)cc1)c1ccc(O)cc1O
[1]
  Activity: inactive

## O=C(/C=C/c1ccc2[nH]ccc2c1)c1ccc(O)cc1O
[1]
  Activity: Active

## O=C(/C=C/c1ccc(-c2ccccc2)cc1)c1ccc(O)cc1O
[1]
  Activity: inactive

## COc1ccc(/C=C/C(=O)c2ccc(O)cc2O)cc1OC
[1]
  Activity: inactive

## COc1cc(Br)c(/C=C/C(=O)c2ccc(O)cc2O)cc1OC
[1]
  Activity: inactive
[15]
  Activity: Active

## O=C(/C=C/c1ccc2ccccc2c1)c1ccc(O)cc1O
[1]
  Activity: inactive

## O=C(/C=C/c1ccc(O)cc1)c1ccc(O)cc1O
[1]
  Activity: inactive
[16]
  Activity: inactive

## COc1cccc(/C=C/C(=O)c2ccc(O)cc2O)c1
[1]
  Activity: inactive

## O=C(/C=C/c1ccccc1)c1ccc(O)cc1O
[1]
  Activity: inactive

## O=C(/C=C/c1cccc(O)c1)c1ccc(O)cc1O
[1]
  Activity: inactive
